Data: ChEMBL document CHEMBL1152415, “Potent antitumor bifunctional DNA alkylating agents, synthesis and biological activities of 3a-aza-cyclopenta[a]indenes” (Bioorg Med Chem, 2009)

Assays:
CCRF-CEM [1] = experiment: Cytotoxicity against human vinblastine-resistant CCRF-CEM cells after 72 hrs by XTT assay; type: functional, cell-based
CCRF-CEM [2] = experiment: Cross-resistance, IC50 for human vinblastine-resistant CCRF-CEM cells to IC50 for human CCRF-CEM cells; type: functional
CCRF-CEM [3] = experiment: Cytotoxicity against human CCRF-CEM cells after 72 hrs by XTT assay; type: functional, cell-based
CCRF-CEM [4] = experiment: Cytotoxicity against human taxol-resistant CCRF-CEM cells after 72 hrs by XTT assay; type: functional, cell-based
CCRF-CEM [5] = experiment: Cross-resistance, IC50 for human taxol-resistant CCRF-CEM cells to IC50 for human CCRF-CEM cells; type: functional
MX1 = experiment: Cytotoxicity against human MX1 cells after 72 hrs by SRB assay; type: functional, cell-based; details: MX1, 72 h
HCT-116 = experiment: Cytotoxicity against human HCT116 cells after 72 hrs by SRB assay; type: functional, cell-based; details: HCT-116, 72 h
PC-3 = experiment: Cytotoxicity against human PC3 cells after 72 hrs by WST-1 assay; type: functional, cell-based; details: PC-3, 72 h
[6] = Cytotoxicity against human U87 cells after 72 hrs by WST-1 assay; type: functional, cell-based, U-87MG ATCC; details: U-87 MG
[7] = Cytotoxicity against human H1299 cells after 72 hrs by WST-1 assay; type: functional, cell-based; details: NCI-H1299, 72 h
[8] = Cytotoxicity against human OECM1 cells after 72 hrs by WST-1 assay; type: functional, cell-based; details: OECM1, 72 h

Question: With `CC(=O)O[C@H]1C(=O)[C@@]2(C)[C@H]([C@H](OC(=O)c3ccccc3)[C@]3(O)C[C@H](OC(=O)[C@H](O)[C@@H](NC(=O)c4ccccc4)c4ccccc4)C(C)=C1C3(C)C)[C@]1(OC(C)=O)CO[C@@H]1C[C@@H]2O` [PACLITAXEL] as the compound, how does the IC50 (CCRF-CEM [1]) read?
Answer: Its IC50 is 0.4 µM.

Question: And the “Ratio IC50” value (CCRF-CEM [2])?
Answer: The value was 333.

Question: What about the IC50 (CCRF-CEM [3]) of the same compound?
Answer: Its IC50 is 0.0012 µM.

Question: What about the IC50 (CCRF-CEM [4]) of the same compound?
Answer: The IC50 was 1.2 µM.

Question: And the “Ratio IC50” value (CCRF-CEM [5])?
Answer: The value was 1000.

Question: For `OCc1c(CO)c(-c2ccc(F)c(F)c2)n2c1Cc1ccccc1-2`, which IC50 (MX1) is on record?
Answer: Its IC50 is 7 µM.

Question: And the IC50 (CCRF-CEM [1])?
Answer: Its IC50 is 7.5 µM.

Question: What about the “Ratio IC50” value (CCRF-CEM [2]) of the same compound?
Answer: Its value is 1.4.

Question: And the IC50 (HCT-116)?
Answer: The IC50 was 11 µM.

Question: And the IC50 (CCRF-CEM [3]; read-out: IC50)?
Answer: The IC50 was 5.2 µM.

Question: What about the IC50 (CCRF-CEM [4]) of the same compound?
Answer: The IC50 was 7.5 µM.

Question: And the “Ratio IC50” value (CCRF-CEM [5])?
Answer: The value was 1.4.

Question: With `COc1cc(-c2c(CO)c(CO)c3n2-c2ccccc2C3)cc(OC)c1OC` as the compound, how does the IC50 (MX1) read?
Answer: Its IC50 is 17 µM.

Question: What about the IC50 (CCRF-CEM [1]) of the same compound?
Answer: Its IC50 is 0.99 µM.

Question: What about the “Ratio IC50” value (CCRF-CEM [2]) of the same compound?
Answer: Its value is 0.45.

Question: And the IC50 (HCT-116)?
Answer: The IC50 was 29 µM.

Question: What about the IC50 (CCRF-CEM [3]; read-out: IC50) of the same compound?
Answer: Its IC50 is 2.2 µM.

Question: And the IC50 (CCRF-CEM [4])?
Answer: The IC50 was 1.1 µM.

Question: And the “Ratio IC50” value (CCRF-CEM [5])?
Answer: Its value is 0.52.

Question: What does the source list for `CNC(=O)OCc1c(COC(=O)NC)c(-c2ccc(Cl)cc2)n2c1Cc1ccccc1-2`?
Answer: IC50 (MX1): 9.9 µM; IC50 (CCRF-CEM [1]): 2.3 µM; Ratio IC50 (CCRF-CEM [2]): 0.4; IC50 (HCT-116): 8.9 µM; IC50 (CCRF-CEM [3]; read-out: IC50): 5.7 µM; IC50 (CCRF-CEM [4]): 3.3 µM; Ratio IC50 (CCRF-CEM [5]): 0.58

Question: With `OCc1c(CO)c(-c2ccccc2)n2c1Cc1ccccc1-2` as the compound, how does the IC50 (MX1) read?
Answer: Its IC50 is 1.3 µM.

Question: What about the IC50 (CCRF-CEM [1]) of the same compound?
Answer: The IC50 was 0.25 µM.

Question: And the “Ratio IC50” value (CCRF-CEM [2])?
Answer: The value was 1.

Question: And the IC50 (HCT-116)?
Answer: The IC50 was 1.9 µM.

Question: What about the IC50 (CCRF-CEM [3]; read-out: IC50) of the same compound?
Answer: The IC50 was 0.25 µM.

Question: And the IC50 (CCRF-CEM [4])?
Answer: The IC50 was 0.22 µM.

Question: And the “Ratio IC50” value (CCRF-CEM [5])?
Answer: The value was 0.9.

Question: Which IC50 (MX1) does the source give for `CNC(=O)OCc1c(COC(=O)NC)c(-c2ccc(F)c(F)c2)n2c1Cc1ccccc1-2` here?
Answer: The IC50 was 8.2 µM.

Question: And the IC50 (CCRF-CEM [1])?
Answer: Its IC50 is 0.65 µM.

Question: What about the “Ratio IC50” value (CCRF-CEM [2]) of the same compound?
Answer: The value was 1.

Question: And the IC50 (HCT-116)?
Answer: The IC50 was 0.9 µM.

Question: What about the IC50 (CCRF-CEM [3]; read-out: IC50) of the same compound?
Answer: Its IC50 is 0.64 µM.

Question: And the IC50 (CCRF-CEM [4])?
Answer: The IC50 was 0.61 µM.

Question: And the “Ratio IC50” value (CCRF-CEM [5])?
Answer: Its value is 0.97.

Question: With `COc1ccc(-c2c(CO)c(CO)c3n2-c2ccccc2C3)cc1` as the compound, how does the IC50 (PC-3) read?
Answer: Its IC50 is 55.5 µM.

Question: What about the IC50 (MX1) of the same compound?
Answer: The IC50 was 11 µM.

Question: What about the IC50 [6] of the same compound?
Answer: The IC50 was 45.5 µM.

Question: What about the IC50 (CCRF-CEM [1]) of the same compound?
Answer: Its IC50 is 1.6 µM.

Question: And the “Ratio IC50” value (CCRF-CEM [2])?
Answer: The value was 1.4.

Question: And the IC50 [7]?
Answer: The IC50 was 50.3 µM.

Question: What about the IC50 (HCT-116) of the same compound?
Answer: The IC50 was 6.1 µM.

Question: And the IC50 (CCRF-CEM [3]; read-out: IC50)?
Answer: The IC50 was 1.2 µM.

Question: What about the IC50 [8] of the same compound?
Answer: Its IC50 is 9.26 µM.

Question: And the IC50 (CCRF-CEM [4])?
Answer: The IC50 was 1.7 µM.

Question: What about the “Ratio IC50” value (CCRF-CEM [5]) of the same compound?
Answer: The value was 1.5.

Question: With `CNC(=O)OCc1c(COC(=O)NC)c(-c2ccc(OC)c(OC)c2)n2c1Cc1ccccc1-2` as the compound, how does the IC50 (MX1) read?
Answer: Its IC50 is 1.8 µM.

Question: And the IC50 (CCRF-CEM [1])?
Answer: The IC50 was 0.5 µM.

Question: What about the “Ratio IC50” value (CCRF-CEM [2]) of the same compound?
Answer: The value was 1.4.

Question: And the IC50 (HCT-116)?
Answer: The IC50 was 0.66 µM.

Question: What about the IC50 (CCRF-CEM [3]; read-out: IC50) of the same compound?
Answer: Its IC50 is 0.35 µM.

Question: And the IC50 (CCRF-CEM [4])?
Answer: Its IC50 is 0.39 µM.

Question: What about the “Ratio IC50” value (CCRF-CEM [5]) of the same compound?
Answer: The value was 1.1.

Question: What does the source list for `CNC(=O)OCc1c(COC(=O)NC)c(-c2ccc(F)cc2)n2c1Cc1ccccc1-2`?
Answer: IC50 (MX1): 0.74 µM; IC50 (CCRF-CEM [1]): 0.28 µM; Ratio IC50 (CCRF-CEM [2]): 2; IC50 (HCT-116): 0.4 µM; IC50 (CCRF-CEM [3]; read-out: IC50): 0.14 µM; IC50 (CCRF-CEM [4]): 0.3 µM; Ratio IC50 (CCRF-CEM [5]): 2.2

Question: Which IC50 (MX1) does the source give for `CNC(=O)OCc1c(COC(=O)NC)c(-c2c(OC)cccc2OC)n2c1Cc1ccccc1-2` here?
Answer: Its IC50 is 5.3 µM.

Question: And the IC50 (CCRF-CEM [1])?
Answer: Its IC50 is 0.62 µM.

Question: And the “Ratio IC50” value (CCRF-CEM [2])?
Answer: Its value is 0.97.

Question: What about the IC50 (HCT-116) of the same compound?
Answer: The IC50 was 1.1 µM.

Question: What about the IC50 (CCRF-CEM [3]; read-out: IC50) of the same compound?
Answer: The IC50 was 0.64 µM.

Question: And the IC50 (CCRF-CEM [4])?
Answer: The IC50 was 0.72 µM.

Question: And the “Ratio IC50” value (CCRF-CEM [5])?
Answer: Its value is 1.1.

Question: For `CC[C@]1(O)C[C@@H]2CN(CCc3c([nH]c4ccccc34)[C@@](C(=O)OC)(c3cc4c(cc3OC)N(C)[C@H]3[C@@](O)(C(=O)OC)[C@H](OC(C)=O)[C@]5(CC)C=CCN6CC[C@]43[C@@H]65)C2)C1` [VINBLASTINE], which “Ratio IC50” value (CCRF-CEM [2]) is on record?
Answer: Its value is 107.

Question: What about the “Ratio IC50” value (CCRF-CEM [5]) of the same compound?
Answer: The value was 685.
